Legend:
Format in all cases: biochemical
[1] = target: T1, Ret kinase (Homo sapiens, UniProt P07949); assay: Ret kinase assay (KinaseProfiler / Kinase Hotspot); conditions: compound at 1 μM
T1 construct: purchased Millipore (KinaseProfiler Service) / Reaction Biology Corp. (Kinase Hotspot)
Description: (§1) This example illustrated c-Src kinase, Aurora-A kinase, Flt3 kinase, Ret kinase and TrkA Kinase Assays of selected Compounds from this invention (referred to Daniele Fancelli et al, J. Med. Chem., 2006, 49 (24), pp 7247-7251). The KinaseProfiler™ Service Assay Protocols (Millipore) were used to test the kinase inhibiting activity of novel compounds from this invention. To do this, the buffer composition was as: 20 mM MOPS, 1 mM EDTA, 0.01% Brij-35, 5% Glycerol, 0.1% […], 1 mg/mL BSA. Test compounds were initially dissolved in DMSO at the desired concentration, then serially diluted to the kinase assay buffer. In a final reaction volume of 25 μL, Aurora-A(h) (5-10 mU) is incubated with 8 mM MOPS pH 7.0, 0.2 mM EDTA, 200 μM LRRASLG (Kemptide), 10 mM MgAcetate and [γ^33P-ATP]. The reaction was initiated by the addition of the MgATP mix. After incubation for 40 minute at room temperature, the reaction was stopped by addition of 5 μL of a 3% phosphoric acid solution. 10 μL of the reaction was then spotted onto a P30 filtermat and washed three times for 5 minutes in 50 mM phosphoric acid and once in methanol prior to drying and scintillation counting. Wells containing substrate but no kinase and wells containing a phosphopeptide control were used to set 0% and 100% phosphorylation value, repectively.
(§2) Also Kinase Hotspot™ kinase assay was used to test the compounds for IC50 or % inhibitions (Reaction Biology Corp.). Inhibitor IC50 values were determined by titration of compound at the optimal kinase concentration (Kinase EC50).

[2] = target: T2, Flt3 kinase (Homo sapiens, UniProt P36888); assay: Flt3 kinase assay (KinaseProfiler / Kinase Hotspot); conditions: compound at 1 μM
T2 construct: purchased Millipore (KinaseProfiler Service) / Reaction Biology Corp. (Kinase Hotspot)
T2 sequence (P36888 27-993): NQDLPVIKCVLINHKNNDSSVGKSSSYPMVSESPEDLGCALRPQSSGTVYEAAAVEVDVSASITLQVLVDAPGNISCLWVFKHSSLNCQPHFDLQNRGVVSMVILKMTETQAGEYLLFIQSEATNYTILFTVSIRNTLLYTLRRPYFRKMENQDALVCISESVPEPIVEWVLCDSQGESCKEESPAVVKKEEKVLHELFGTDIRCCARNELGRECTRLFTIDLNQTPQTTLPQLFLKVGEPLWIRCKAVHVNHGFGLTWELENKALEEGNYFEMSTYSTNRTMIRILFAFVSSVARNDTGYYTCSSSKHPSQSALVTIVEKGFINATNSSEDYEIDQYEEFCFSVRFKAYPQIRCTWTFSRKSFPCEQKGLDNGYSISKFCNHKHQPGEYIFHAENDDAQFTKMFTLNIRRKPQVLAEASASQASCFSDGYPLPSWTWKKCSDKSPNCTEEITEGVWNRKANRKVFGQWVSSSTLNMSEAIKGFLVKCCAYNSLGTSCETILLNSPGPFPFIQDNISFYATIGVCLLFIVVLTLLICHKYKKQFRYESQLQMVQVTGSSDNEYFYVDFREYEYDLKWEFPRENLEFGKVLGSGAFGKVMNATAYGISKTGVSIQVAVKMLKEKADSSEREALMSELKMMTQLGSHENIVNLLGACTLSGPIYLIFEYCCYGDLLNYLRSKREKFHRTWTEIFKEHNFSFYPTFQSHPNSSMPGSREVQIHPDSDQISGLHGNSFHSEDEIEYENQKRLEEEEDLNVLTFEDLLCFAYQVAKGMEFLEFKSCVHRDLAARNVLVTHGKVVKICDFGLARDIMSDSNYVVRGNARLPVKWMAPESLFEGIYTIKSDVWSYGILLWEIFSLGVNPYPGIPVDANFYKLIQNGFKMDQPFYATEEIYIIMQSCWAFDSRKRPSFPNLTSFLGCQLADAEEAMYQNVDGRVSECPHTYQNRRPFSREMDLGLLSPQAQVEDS
Description: as §1, §2

[3] = target: T3, TrkA Kinase (Homo sapiens, UniProt P04629); assay: TrkA kinase assay (KinaseProfiler / Kinase Hotspot); conditions: compound at 1 μM
T3 construct: purchased Millipore (KinaseProfiler Service) / Reaction Biology Corp. (Kinase Hotspot)
Description: as §1, §2

[4] = target: T4, Aurora-A(h) (Homo sapiens, UniProt O14965); assay: Aurora-A kinase assay (KinaseProfiler / Kinase Hotspot); conditions: compound at 1 μM; read-out: % Inhibition @1 μM Auroro-A
T4 construct: purchased Millipore (KinaseProfiler Service) / Reaction Biology Corp. (Kinase Hotspot)
T4 sequence (O14965 1-403): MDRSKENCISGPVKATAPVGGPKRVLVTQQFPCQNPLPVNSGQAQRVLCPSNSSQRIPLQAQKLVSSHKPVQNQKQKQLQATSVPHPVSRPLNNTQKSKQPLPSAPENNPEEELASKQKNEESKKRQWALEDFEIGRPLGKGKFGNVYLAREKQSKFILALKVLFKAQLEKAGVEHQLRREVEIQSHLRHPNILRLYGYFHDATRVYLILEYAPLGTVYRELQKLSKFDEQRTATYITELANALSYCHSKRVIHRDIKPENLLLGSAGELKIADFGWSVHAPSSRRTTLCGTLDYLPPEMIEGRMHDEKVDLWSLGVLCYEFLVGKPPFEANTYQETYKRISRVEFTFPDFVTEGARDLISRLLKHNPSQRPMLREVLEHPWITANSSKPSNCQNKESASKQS
Description: as §1, §2

[5] = target: T5, c-Src kinase (Homo sapiens, UniProt P12931); assay: c-Src kinase assay (KinaseProfiler / Kinase Hotspot); conditions: compound at 1 μM; read-out: % Inhibition @1 μM cSrc
T5 construct: purchased Millipore (KinaseProfiler Service) / Reaction Biology Corp. (Kinase Hotspot)
Description: as §1, §2

T5 sequence (P12931 whole entry): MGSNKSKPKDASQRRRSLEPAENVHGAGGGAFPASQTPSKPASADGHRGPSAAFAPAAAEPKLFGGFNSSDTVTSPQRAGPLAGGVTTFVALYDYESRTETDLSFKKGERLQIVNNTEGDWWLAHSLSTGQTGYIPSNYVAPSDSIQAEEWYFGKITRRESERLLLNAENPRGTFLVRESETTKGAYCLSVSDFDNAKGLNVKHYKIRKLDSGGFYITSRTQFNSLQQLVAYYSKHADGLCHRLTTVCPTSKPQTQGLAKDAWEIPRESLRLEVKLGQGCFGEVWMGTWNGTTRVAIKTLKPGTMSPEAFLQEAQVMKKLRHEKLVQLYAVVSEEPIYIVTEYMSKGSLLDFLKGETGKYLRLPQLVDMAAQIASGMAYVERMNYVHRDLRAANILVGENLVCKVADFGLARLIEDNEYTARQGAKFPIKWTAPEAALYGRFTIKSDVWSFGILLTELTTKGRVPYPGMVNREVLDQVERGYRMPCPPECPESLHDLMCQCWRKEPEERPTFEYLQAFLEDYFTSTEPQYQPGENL
T3 sequence (P04629 33-796): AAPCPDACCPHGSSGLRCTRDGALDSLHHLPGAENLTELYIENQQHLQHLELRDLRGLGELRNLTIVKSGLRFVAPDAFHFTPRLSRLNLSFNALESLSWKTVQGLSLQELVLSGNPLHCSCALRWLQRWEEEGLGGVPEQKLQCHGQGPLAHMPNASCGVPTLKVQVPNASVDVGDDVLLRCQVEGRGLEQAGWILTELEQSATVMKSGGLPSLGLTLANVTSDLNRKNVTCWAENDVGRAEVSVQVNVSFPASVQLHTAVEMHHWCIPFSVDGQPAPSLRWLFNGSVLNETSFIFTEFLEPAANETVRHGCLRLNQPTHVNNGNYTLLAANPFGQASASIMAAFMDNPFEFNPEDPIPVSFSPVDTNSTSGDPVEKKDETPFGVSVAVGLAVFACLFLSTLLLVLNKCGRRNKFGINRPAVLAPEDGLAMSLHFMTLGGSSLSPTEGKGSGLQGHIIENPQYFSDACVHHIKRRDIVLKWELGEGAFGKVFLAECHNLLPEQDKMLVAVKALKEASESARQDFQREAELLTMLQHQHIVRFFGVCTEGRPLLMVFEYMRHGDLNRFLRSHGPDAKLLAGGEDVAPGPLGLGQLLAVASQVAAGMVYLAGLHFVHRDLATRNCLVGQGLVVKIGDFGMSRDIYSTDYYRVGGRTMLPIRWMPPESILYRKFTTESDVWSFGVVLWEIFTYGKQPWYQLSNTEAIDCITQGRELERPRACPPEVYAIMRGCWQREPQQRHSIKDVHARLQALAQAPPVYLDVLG
T1 sequence (P07949 29-1114): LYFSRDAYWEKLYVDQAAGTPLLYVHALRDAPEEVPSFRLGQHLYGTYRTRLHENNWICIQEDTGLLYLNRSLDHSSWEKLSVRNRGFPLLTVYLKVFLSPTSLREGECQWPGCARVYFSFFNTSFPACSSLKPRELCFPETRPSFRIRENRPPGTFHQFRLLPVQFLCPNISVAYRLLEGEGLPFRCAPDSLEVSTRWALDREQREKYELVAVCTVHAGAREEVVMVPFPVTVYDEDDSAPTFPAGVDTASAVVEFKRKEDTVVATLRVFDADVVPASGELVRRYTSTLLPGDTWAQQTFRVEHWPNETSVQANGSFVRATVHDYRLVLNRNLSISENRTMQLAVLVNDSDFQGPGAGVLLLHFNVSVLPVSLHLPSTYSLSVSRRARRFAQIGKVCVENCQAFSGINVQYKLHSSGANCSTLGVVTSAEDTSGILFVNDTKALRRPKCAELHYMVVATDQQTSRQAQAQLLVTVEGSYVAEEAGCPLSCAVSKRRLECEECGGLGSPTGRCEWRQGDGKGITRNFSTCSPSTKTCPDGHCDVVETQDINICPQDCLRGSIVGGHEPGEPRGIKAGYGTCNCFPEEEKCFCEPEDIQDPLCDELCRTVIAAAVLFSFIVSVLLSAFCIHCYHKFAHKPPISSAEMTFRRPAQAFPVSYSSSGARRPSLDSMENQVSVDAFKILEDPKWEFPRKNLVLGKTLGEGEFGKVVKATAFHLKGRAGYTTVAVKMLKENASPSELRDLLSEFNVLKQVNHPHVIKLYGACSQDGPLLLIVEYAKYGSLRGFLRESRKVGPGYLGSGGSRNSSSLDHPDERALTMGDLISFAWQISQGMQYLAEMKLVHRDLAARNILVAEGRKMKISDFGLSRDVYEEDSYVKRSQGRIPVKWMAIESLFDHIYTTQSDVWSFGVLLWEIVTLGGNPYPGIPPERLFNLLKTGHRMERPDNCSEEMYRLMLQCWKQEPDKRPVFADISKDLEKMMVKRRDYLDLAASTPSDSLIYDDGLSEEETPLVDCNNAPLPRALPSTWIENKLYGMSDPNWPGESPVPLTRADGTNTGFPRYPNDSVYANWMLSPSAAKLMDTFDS

`Cc1cc(Nc2nc(/C=C\c3ccccc3)nc(N3CCN(C)CC3)n2)n[nH]1` [Example 4] was tested. Which inhibition at 1 µM [1] did it give?
Its inhibition at 1 µM is less than 50%.

And the inhibition at 1 µM [2]?
Its inhibition at 1 µM is 50 to 90%.

And the inhibition at 1 µM [3]?
The inhibition at 1 µM was 50 to 90%.

What about the inhibition at 1 µM [4] of the same compound?
The inhibition at 1 µM was 50 to 90%.

And the inhibition at 1 µM [5]?
The inhibition at 1 µM was less than 50%.

What does the source list for `Cc1cnc(Nc2nc(/C=C/c3ccccc3)nc(N3CCN(C)CC3)n2)s1` [Example 17]?
inhibition at 1 µM [1]: < 50%; inhibition at 1 µM [2]: > 90%; inhibition at 1 µM [3]: > 90%; inhibition at 1 µM [4]: 50 to 90%; inhibition at 1 µM [5]: 50 to 90%

For `Cc1cc(Nc2nc(/C=C/c3cccc(Cl)c3)nc(N3CCN(C)CC3)n2)n[nH]1` [Example 11], which inhibition at 1 µM [1] is on record?
The inhibition at 1 µM was less than 50%.

What about the inhibition at 1 µM [2] of the same compound?
The inhibition at 1 µM was greater than 90%.

And the inhibition at 1 µM [3]?
The inhibition at 1 µM was greater than 90%.

And the inhibition at 1 µM [4]?
Its inhibition at 1 µM is 50 to 90%.

And the inhibition at 1 µM [5]?
The inhibition at 1 µM was 50 to 90%.

Which inhibition at 1 µM [1] does the source give for `Cc1cc(Nc2nc(/C=C/c3nccs3)nc(N3CCN(C)CC3)n2)n[nH]1` [Example 12] here?
Its inhibition at 1 µM is less than 50%.

What about the inhibition at 1 µM [2] of the same compound?
The inhibition at 1 µM was greater than 90%.

What about the inhibition at 1 µM [3] of the same compound?
The inhibition at 1 µM was 50 to 90%.

And the inhibition at 1 µM [4]?
The inhibition at 1 µM was 50 to 90%.

What about the inhibition at 1 µM [5] of the same compound?
The inhibition at 1 µM was 50 to 90%.

With `Cc1cc(Nc2nc(C#Cc3ccccc3)nc(N3CCN(C)CC3)n2)n[nH]1` [Example 3] as the compound, how does the inhibition at 1 µM [1] read?
Its inhibition at 1 µM is 50 to 90%.

What about the inhibition at 1 µM [2] of the same compound?
The inhibition at 1 µM was 50 to 90%.

And the inhibition at 1 µM [3]?
Its inhibition at 1 µM is greater than 90%.

What about the inhibition at 1 µM [4] of the same compound?
The inhibition at 1 µM was 50 to 90%.

And the inhibition at 1 µM [5]?
The inhibition at 1 µM was less than 50%.

How did the inhibition at 1 µM [1] turn out when `Cc1cc(Nc2nc(/C=C/c3ccccc3)nc(N3CCN(C)CC3)n2)n[nH]1` [Example 7] was run?
The inhibition at 1 µM was 50 to 90%.

What about the inhibition at 1 µM [2] of the same compound?
The inhibition at 1 µM was greater than 90%.

What about the inhibition at 1 µM [3] of the same compound?
The inhibition at 1 µM was greater than 90%.

What about the inhibition at 1 µM [4] of the same compound?
The inhibition at 1 µM was greater than 90%.

What about the inhibition at 1 µM [5] of the same compound?
Its inhibition at 1 µM is 50 to 90%.

Which results are given for `Cc1cc(Nc2nc(/C=C/c3ccc(Cl)cc3)nc(N3CCN(C)CC3)n2)n[nH]1` [Example 8]?
inhibition at 1 µM [1]: 50 to 90%; inhibition at 1 µM [2]: > 90%; inhibition at 1 µM [3]: > 90%; inhibition at 1 µM [4]: 50 to 90%; inhibition at 1 µM [5]: 50 to 90%

Which inhibition at 1 µM [1] does the source give for `Cc1ccc(/C=C/c2nc(Nc3cc(C)[nH]n3)nc(N3CCN(C)CC3)n2)cc1` [Example 9] here?
The inhibition at 1 µM was 50 to 90%.

What about the inhibition at 1 µM [2] of the same compound?
Its inhibition at 1 µM is 50 to 90%.

What about the inhibition at 1 µM [3] of the same compound?
The inhibition at 1 µM was greater than 90%.

What about the inhibition at 1 µM [4] of the same compound?
Its inhibition at 1 µM is 50 to 90%.

What about the inhibition at 1 µM [5] of the same compound?
Its inhibition at 1 µM is less than 50%.

What does the source list for `C/C=C/c1cc(Nc2nc(/C=C/c3ccccc3)nc(N3CCN(C)CC3)n2)n[nH]1` [Example 19]?
inhibition at 1 µM [1]: 50 to 90%; inhibition at 1 µM [2]: 50 to 90%; inhibition at 1 µM [3]: > 90%; inhibition at 1 µM [4]: 50 to 90%; inhibition at 1 µM [5]: > 90%

What does the source list for `CN1CCN(c2nc(/C=C/c3ccccc3)nc(Nc3cc(-c4ccccc4)[nH]n3)n2)CC1` [Example 18]?
inhibition at 1 µM [1]: 50 to 90%; inhibition at 1 µM [2]: > 90%; inhibition at 1 µM [3]: > 90%; inhibition at 1 µM [4]: 50 to 90%; inhibition at 1 µM [5]: 50 to 90%

Which inhibition at 1 µM [1] does the source give for `Cc1cc(Nc2nc(/C=C/c3ccccc3Cl)nc(N3CCN(C)CC3)n2)n[nH]1` [Example 10] here?
The inhibition at 1 µM was less than 50%.

And the inhibition at 1 µM [2]?
The inhibition at 1 µM was greater than 90%.

What about the inhibition at 1 µM [3] of the same compound?
Its inhibition at 1 µM is greater than 90%.

And the inhibition at 1 µM [4]?
The inhibition at 1 µM was 50 to 90%.

And the inhibition at 1 µM [5]?
Its inhibition at 1 µM is 50 to 90%.
